Like-named read-outs stand apart in the source and are kept apart here.
Test system: HCV pseudoparticles (genotype 1a HCV E1 and E2 envelope, H77C isolate)
Test: HCV pseudoparticle infection assay (luciferase reporter, entry into Huh7 cells)
Assay type: cell-based, HCV genotype 1a
Conditions: Hepatitis C virus, Huh-7, 48 h
[1] = read-out: EC50 (1a, nM), genotype 1a HCV pseudoparticles, Huh7 cells, luciferase 2 days after infection, average of duplicates
[2] = read-out: EC50 (1a, nM), genotype 1a HCV pseudoparticles, Huh7 cells, luciferase 2 days after infection, class symbol

Row | SMILES | EC50 [1] [nM] | EC50 [2] [nM]
1 | COC(=O)[C@H](CNc1c(OC)c(=O)c1=O)NC(=O)c1ccc(Nc2nc(NC3(c4ccc(Cl)cc4)CC3)nc(OCC(F)(F)F)n2)cc1 [Compound 1001, (S)-methyl 2-(4-(4-(1-(4-chlorophenyl)cyclopropylamino)-6-(2,2,2-trifluoroethoxy)-1,3,5-triazin-2-ylamino)benzamido)-3-(2-methoxy-3,4-dioxocyclobut-1-enylamino)propanoate] | 117 | 10 to 1000
2 | CCOc1c(NC[C@H](NC(=O)c2ccc(Nc3nc(NC4(c5ccc(Cl)cc5)CC4)nc(OCC(F)(F)F)n3)cc2)C(=O)OC)c(=O)c1=O [Compound 1002, (S)-methyl 2-(4-(4-(1-(4-chlorophenyl)cyclopropylamino)-6-(2,2,2-trifluoroethoxy)-1,3,5-triazin-2-ylamino)benzamido)-3-(2-ethoxy-3,4-dioxocyclobut-1-enylamino)propanoate] | – | 10 to 1000
3 | COC(=O)[C@H](CNc1c(O)c(=O)c1=O)NC(=O)c1ccc(Nc2nc(NC3(c4ccc(Cl)cc4)CC3)nc(OCC(F)(F)F)n2)cc1 [Compound 1003, (S)-methyl 2-(4-(4-(1-(4-chlorophenyl)cyclopropylamino)-6-(2,2,2-trifluoroethoxy)-1,3,5-triazin-2-ylamino)benzamido)-3-(2-hydroxy-3,4-dioxocyclobut-1-enylamino)propanoate] | 47 | 10 to 1000
4 | CCOc1c(NC[C@H](NC(=O)c2ccc(Nc3nc(NC4(c5ccc(Cl)cc5)CC4)nc(OCC(F)(F)F)n3)cc2)C(=O)O)c(=O)c1=O [Compound 1004, (S)-2-(4-(4-(1-(4-chlorophenyl)cyclopropylamino)-6-(2,2,2-trifluoroethoxy)-1,3,5-triazin-2-ylamino)benzamido)-3-(2-ethoxy-3,4-dioxocyclobut-1-enylamino)propanoic acid] | – | 10 to 1000
5 | CCOc1c(NCC(C)(C)CNC(=O)c2ccc(Nc3nc(NC4(c5ccc(Cl)cc5)CC4)nc(OCC(F)(F)F)n3)cc2)c(=O)c1=O [Compound 1005, 4-((4-((1-(4-chlorophenyl)cyclopropyl)amino)-6-(2,2,2-trifluoroethoxy)-1,3,5-triazin-2-yl)amino)-N-(3-((2-ethoxy-3,4-dioxocyclobut-1-en-1-yl)amino)-2,2-dimethylpropyl)benzamide] | – | 0.01 to 10
6 | CC(C)(CNC(=O)c1ccc(Nc2nc(NC3(c4ccc(Cl)cc4)CC3)nc(OCC(F)(F)F)n2)cc1)CNc1c(O)c(=O)c1=O [Compound 1006] | 0.52 | 0.01 to 10
7 | CC(C)(CNC(=O)c1ccc(Nc2nc(NC3(c4ccc(Cl)cc4)CC3)nc(OCC(F)(F)F)n2)cc1)CNc1c(NCC2CC2)c(=O)c1=O [Compound 1007] | – | 0.01 to 10
8 | CC(C)(CNC(=O)c1ccc(Nc2nc(NC3(c4ccc(Cl)cc4)CC3)nc(OCC(F)(F)F)n2)cc1)CNc1c(NCc2ccc(F)cc2F)c(=O)c1=O [Compound 1008] | 0.05 | 0.01 to 10
9 | CC(C)(CNC(=O)c1ccc(Nc2nc(NC3(c4ccc(Cl)cc4)CC3)nc(OCC(F)(F)F)n2)cc1)CNc1c(NC2CCCCCC2)c(=O)c1=O [Compound 1009] | – | 0.01 to 10
10 | CC(C)(CNC(=O)c1ccc(Nc2nc(NC3(c4ccc(Cl)cc4)CC3)nc(OCC(F)(F)F)n2)cc1)CNc1c(NCC2(CN3CCCC3)CC2)c(=O)c1=O [Compound 1010] | – | 0.01 to 10
11 | O=C(N[C@@H](CCNc1c(NCC2CC2)c(=O)c1=O)C(=O)NCC1CC1)c1ccc(Nc2nc(NC3(c4ccc(Cl)cc4)CC3)nc(OCC(F)(F)F)n2)cc1 [Compound 1011] | 5.98 | 0.01 to 10
12 | O=C(N[C@@H](CCNc1c(NC2CCCCCCC2)c(=O)c1=O)C(=O)O)c1ccc(Nc2nc(NC3(c4ccc(Cl)cc4)CC3)nc(OCC(F)(F)F)n2)cc1 [Compound 1012] | – | 0.01 to 10
13 | CC(C)(CNC(=O)c1ccc(Nc2nc(NC3(c4ccc(Cl)cc4)CC3)nc(OCC(F)(F)F)n2)cc1)CNc1c(Nc2ccccc2)c(=O)c1=O [Compound 1013] | – | 0.01 to 10
14 | O=C(N[C@@H](CCNc1c(Nc2ccccc2)c(=O)c1=O)C(=O)Nc1ccccc1)c1ccc(Nc2nc(NC3(c4ccc(Cl)cc4)CC3)nc(OCC(F)(F)F)n2)cc1 [Compound 1014] | – | 10 to 1000
15 | O=C(N[C@@H](CCNc1c(NCC2(Cn3ccnc3)CC2)c(=O)c1=O)C(=O)O)c1ccc(Nc2nc(NC3(c4ccc(Cl)cc4)CC3)nc(OCC(F)(F)F)n2)cc1 [Compound 1015] | 6.55 | 0.01 to 10
16 | O=C(N[C@@H](CCNc1c(Nc2ccccc2)c(=O)c1=O)C(=O)O)c1ccc(Nc2nc(NC3(c4ccc(Cl)cc4)CC3)nc(OCC(F)(F)F)n2)cc1 [Compound 1016] | – | 0.01 to 10
17 | O=C(N[C@@H](CCNc1c(N[C@@H]2C[C@H]3CC[C@@H]2C3)c(=O)c1=O)C(=O)O)c1ccc(Nc2nc(NC3(c4ccc(Cl)cc4)CC3)nc(OCC(F)(F)F)n2)cc1 [Compound 1017] | – | 0.01 to 10
18 | O=C(N[C@@H](CCNc1c(NC2CCCCCC2)c(=O)c1=O)C(=O)NC1CCCCCC1)c1ccc(Nc2nc(NC3(c4ccc(Cl)cc4)CC3)nc(OCC(F)(F)F)n2)cc1 [Compound 1018] | – | 0.01 to 10
19 | O=C(N[C@@H](CCNc1c(N[C@@H]2C[C@H]3CC[C@@H]2C3)c(=O)c1=O)C(=O)N[C@@H]1C[C@H]2CC[C@@H]1C2)c1ccc(Nc2nc(NC3(c4ccc(Cl)cc4)CC3)nc(OCC(F)(F)F)n2)cc1 [Compound 1019] | – | 10 to 1000
20 | O=C(N[C@@H](CCNc1c(NCc2ccc(F)cc2F)c(=O)c1=O)C(=O)NCc1ccc(F)cc1F)c1ccc(Nc2nc(NC3(c4ccc(Cl)cc4)CC3)nc(OCC(F)(F)F)n2)cc1 [Compound 1020] | – | 0.01 to 10
21 | CCOC(=O)[C@H](CCNc1c(NC2CCCCCC2)c(=O)c1=O)NC(=O)c1ccc(Nc2nc(NC3(c4ccc(Cl)cc4)CC3)nc(OCC(F)(F)F)n2)cc1 [Compound 1021] | 1.24 | 0.01 to 10

From patent US9624180B2, “Squaric derivatives for the treatment of hepatitis C” (priority 2013, dated 2017)
